Results: US8207172B2 (Bayer Intellectual Property GmbH, priority 2004, dated 2012)

Legend:
[1] = system: BT474 (human breast carcinoma); assay: In vitro tumor cell proliferation assay (Cell Titer-Glo luminescent cell viability), BT474; assay type: cell-based; details: BT-474, 72 h, BT474 cells, 72 hours of drug exposure, ATP luminescence readout, read-out: IC50, anti-proliferative activity (inhibition of cell proliferation)
Outline: (§1)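 IC50 values reflect ATP-based luminescence (CellTiter-Glo) after 72 h compound exposure at 37°C. Both lines, A431 and BT474, were plated in RPMI with 10% FBS and received serial dilutions ranging from 100 μM to 64 pM final at 0.1% DMSO.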

[2] = system: A431 cells (human epidermoid carcinoma); assay: In vitro tumor cell proliferation assay (Cell Titer-Glo luminescent cell viability), A431; assay type: cell-based; details: A-431, 72 h, 72 hours of drug exposure, ATP luminescence readout, read-out: IC50, anti-proliferative activity (inhibition of cell proliferation)
Outline: as §1

Row | SMILES | IC50 [1] [µM] | IC50 [2] [µM]
1 | CN(C)[C@H]1CCN(CCn2ncc3c2CCc2c-3sc3ncnc(Nc4ccc(F)c(Cl)c4)c23)C1 [Example 95, N-(3-chloro-4-fluorophenyl)-3-{2-[3-(dimethylamino)pyrrolidin-1-yl]ethyl}-4,5-dihydro-3H-pyrimido[5′,4′:4,5]thieno[2,3-e]indazol-6-amine] | ≤ 1 | ≤ 5
2 | OCCNCCn1ncc2c1CCc1c-2sc2ncnc(Nc3ccc(F)c(Cl)c3)c12 [Example 96, 2-[(2-{6-[(3-chloro-4-fluorophenyl)amino]-4,5-dihydro-3H-pyrimido[5′,4′:4,5]thieno[2,3-e]indazol-3-yl}ethyl)amino]ethanol] | ≤ 1 | ≤ 5
3 | Fc1ccc(Nc2ncnc3sc4c(c23)CCc2c-4cnn2CCn2ccnc2)cc1Cl [Example 97, N-(3-chloro-4-fluorophenyl)-3-[2-(1H-imidazol-1-yl)ethyl]-4,5-dihydro-3H-pyrimido[5′,4′:4,5]thieno[2,3-e]indazol-6-amine] | ≤ 5 | ≤ 5
4 | CC(C)(C)[Si](C)(C)OCCn1cc2c(n1)CCc1c-2sc2ncnc(Nc3ccc(OCc4ccccn4)c(Cl)c3)c12 [Example 98, 2-(2-{[tert-butyl(dimethyl)silyl]oxy}ethyl)-N-[3-chloro-4-(pyridin-2-ylmethoxy)phenyl]-4,5-dihydro-2H-pyrimido[5′,4′:4,5]thieno[2,3-e]indazol-6-amine] | ≤ 1 | ≤ 50
5 | CN1CCN(CCn2cc3c(n2)CCc2c-3sc3ncnc(Nc4ccc(OCc5ccccn5)c(Cl)c4)c23)CC1 [Example 102, N-[3-chloro-4-(pyridin-2-ylmethoxy)phenyl]-2-[2-(4-methylpiperazin-1-yl)ethyl]-4,5-dihydro-2H-pyrimido[5′,4′:4,5]thieno[2,3-e]indazol-6-amine] | ≤ 1 | ≤ 5
6 | COCCNCCn1cc2c(n1)CCc1c-2sc2ncnc(Nc3ccc(OCc4ccccn4)c(Cl)c3)c12 [Example 103, N-[3-chloro-4-(pyridin-2-ylmethoxy)phenyl]-2-{2-[(2-methoxyethyl)amino]ethyl}-4,5-dihydro-2H-pyrimido[5′,4′:4,5]thieno[2,3-e]indazol-6-amine] | ≤ 1 | ≤ 50
7 | Clc1cc(Nc2ncnc3sc4c(c23)CCc2nn(CCn3ccnc3)cc2-4)ccc1OCc1ccccn1 [Example 104, N-[3-chloro-4-(pyridin-2-ylmethoxy)phenyl]-2-[2-(1H-imidazol-1-yl)ethyl]-4,5-dihydro-2H-pyrimido[5′,4′:4,5]thieno[2,3-e]indazol-6-amine] | ≤ 1 | ≤ 50
8 | CS(=O)(=O)CCNCCn1cc2c(n1)CCc1c-2sc2ncnc(Nc3ccc(OCc4ccccn4)c(Cl)c3)c12 [Example 105, N-[3-chloro-4-(pyridin-2-ylmethoxy)phenyl]-2-(2-{[2-(methylsulfonyl)ethyl]amino}ethyl)-4,5-dihydro-2H-pyrimido[5′,4′:4,5]thieno[2,3-e]indazol-6-amine] | ≤ 1 | ≤ 5

Now from value to molecule:

Row | IC50 [1] [µM] | IC50 [2] [µM] | SMILES
9 | ≤ 1 | ≤ 5 | OCCn1cc2c(n1)CCc1c-2sc2ncnc(Nc3ccc(OCc4ccccn4)c(Cl)c3)c12 [Example 99, 2-(6-{[3-chloro-4-(pyridin-2-ylmethoxy)phenyl]amino}-4,5-dihydro-2H-pyrimido[5′,4′:4,5]thieno[2,3-e]indazol-2-yl)ethanol]
10 | ≤ 1 | ≤ 5 | OCCn1ncc2c1CCc1c-2sc2ncnc(Nc3ccc(OCc4ccccn4)c(Cl)c3)c12 [Example 100, 2-(6-{[3-chloro-4-(pyridin-2-ylmethoxy)phenyl]amino}-4,5-dihydro-2H-pyrimido[5′,4′:4,5]thieno[2,3-e]indazol-3-yl)ethanol]
11 | ≤ 1 | ≤ 50 | Clc1cc(Nc2ncnc3sc4c(c23)CCc2nn(CCBr)cc2-4)ccc1OCc1ccccn1 [Example 101, 2-(2-bromoethyl)-N-[3-chloro-4-(pyridin-2-ylmethoxy)phenyl]-4,5-dihydro-2H-pyrimido[5′,4′:4,5]thieno[2,3-e]indazol-6-amine]
